ChEMBL document CHEMBL5728071, “Optically active azabicyclo ring derivative” (2020)

Target: T1, Menin (Homo sapiens, UniProt O00255)
T1 sequence (O00255 whole entry): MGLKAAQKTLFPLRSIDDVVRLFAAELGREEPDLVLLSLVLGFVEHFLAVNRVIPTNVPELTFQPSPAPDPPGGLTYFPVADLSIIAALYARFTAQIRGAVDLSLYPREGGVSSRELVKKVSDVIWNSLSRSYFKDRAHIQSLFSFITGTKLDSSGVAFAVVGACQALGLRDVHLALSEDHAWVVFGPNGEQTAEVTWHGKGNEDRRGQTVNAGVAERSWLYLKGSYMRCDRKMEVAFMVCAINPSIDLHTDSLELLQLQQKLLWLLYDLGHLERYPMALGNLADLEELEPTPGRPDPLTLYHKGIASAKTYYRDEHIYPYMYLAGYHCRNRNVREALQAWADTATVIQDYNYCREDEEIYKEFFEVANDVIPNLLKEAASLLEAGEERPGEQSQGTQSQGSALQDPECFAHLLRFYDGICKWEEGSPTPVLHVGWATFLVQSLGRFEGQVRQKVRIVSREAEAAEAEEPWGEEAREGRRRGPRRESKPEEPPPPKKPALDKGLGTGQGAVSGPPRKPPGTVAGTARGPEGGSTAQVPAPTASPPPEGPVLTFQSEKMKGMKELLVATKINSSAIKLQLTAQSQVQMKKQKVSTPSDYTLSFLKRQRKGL
Assay: After the incubation, the signal was detected with RUBYstar (BMG LABTECH).

| Compound | IC50 [nM] |
| --- | --- |
| C=C1C[C@H]2CC[C@@H]1N[C@@H]2C(=O)N1CCC2(CC1)CN(c1ncncc1Oc1ccc(F)cc1C(=O)N(C(C)C)C(C)C)C2 | 7.9 |
| C=C1C[C@H]2CC[C@@H]1N[C@@H]2C(=O)N1CC2(C1)CN(c1ncncc1Oc1ccc(F)cc1C(=O)N(C(C)C)C(C)C)C2 | 6.2 |
